Data as given in US20250129078A1, “ERBB2 INHIBITORS” (Cogent Biosciences, Inc., priority 2023, published 2025).

Experiments:
[1] = biological target: ErbB2 V777L (Homo sapiens (Human), UniProt P04626, V777L); experiment: ErbB enzyme assay (CisBio HTRF-KinEASE-TK), ErbB2 V777L; type: biochemical
In short: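 HTRF KinEASE-TK tyrosine-kinase read-out of substrate phosphorylation after a final 1 h at ambient temperature, from the 655/620 nm emission ratio.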

[2] = biological target: EGFR WT (Homo sapiens (Human), UniProt P00533); experiment: ErbB enzyme assay (CisBio HTRF-KinEASE-TK), EGFR WT; type: biochemical; details: ATP at Km (25 μM), 1 h incubation
Sequence of EGFR WT (P00533 25-1210): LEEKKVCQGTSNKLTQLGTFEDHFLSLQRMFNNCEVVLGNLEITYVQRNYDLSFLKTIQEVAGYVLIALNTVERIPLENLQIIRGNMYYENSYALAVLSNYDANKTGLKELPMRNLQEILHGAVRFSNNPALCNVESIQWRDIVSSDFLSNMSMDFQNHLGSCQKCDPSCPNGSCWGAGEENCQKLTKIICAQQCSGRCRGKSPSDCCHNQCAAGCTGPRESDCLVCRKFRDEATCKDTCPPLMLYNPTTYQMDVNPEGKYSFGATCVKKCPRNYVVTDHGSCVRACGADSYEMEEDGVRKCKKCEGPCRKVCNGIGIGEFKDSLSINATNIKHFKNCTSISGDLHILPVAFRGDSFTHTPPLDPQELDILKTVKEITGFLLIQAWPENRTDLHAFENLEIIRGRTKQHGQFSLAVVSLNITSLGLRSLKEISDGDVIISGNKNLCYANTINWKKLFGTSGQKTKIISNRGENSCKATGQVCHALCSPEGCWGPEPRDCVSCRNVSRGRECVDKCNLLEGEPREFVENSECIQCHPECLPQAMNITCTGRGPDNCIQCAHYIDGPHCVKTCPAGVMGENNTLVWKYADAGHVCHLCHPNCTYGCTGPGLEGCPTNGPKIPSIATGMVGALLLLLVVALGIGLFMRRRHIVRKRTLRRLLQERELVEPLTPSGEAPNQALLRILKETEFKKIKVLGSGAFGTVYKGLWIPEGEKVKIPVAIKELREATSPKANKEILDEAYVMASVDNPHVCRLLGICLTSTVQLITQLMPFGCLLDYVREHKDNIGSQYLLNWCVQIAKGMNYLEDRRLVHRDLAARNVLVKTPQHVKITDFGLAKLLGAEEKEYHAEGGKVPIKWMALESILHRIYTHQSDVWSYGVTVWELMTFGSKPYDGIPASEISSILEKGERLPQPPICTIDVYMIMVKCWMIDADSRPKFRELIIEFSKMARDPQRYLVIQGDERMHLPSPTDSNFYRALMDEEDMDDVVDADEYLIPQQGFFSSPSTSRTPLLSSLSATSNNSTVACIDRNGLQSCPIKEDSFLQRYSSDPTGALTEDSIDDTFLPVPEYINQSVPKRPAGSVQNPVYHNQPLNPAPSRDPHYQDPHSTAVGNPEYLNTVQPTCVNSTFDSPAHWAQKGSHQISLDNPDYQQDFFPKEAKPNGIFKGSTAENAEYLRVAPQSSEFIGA
In short: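 Three-fold DMSO serial dilutions were added to kinase reactions and incubated 1 h at room temperature. Quench used 62.5 nM Sa-XL665 plus 0.25×TK-Ab-Cryptate in detection buffer, followed by another 1 h. Substrate phosphorylation was then measured by dual-wavelength HTRF.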

Sequence of ErbB2 V777L (P04626 23-1255 V777L): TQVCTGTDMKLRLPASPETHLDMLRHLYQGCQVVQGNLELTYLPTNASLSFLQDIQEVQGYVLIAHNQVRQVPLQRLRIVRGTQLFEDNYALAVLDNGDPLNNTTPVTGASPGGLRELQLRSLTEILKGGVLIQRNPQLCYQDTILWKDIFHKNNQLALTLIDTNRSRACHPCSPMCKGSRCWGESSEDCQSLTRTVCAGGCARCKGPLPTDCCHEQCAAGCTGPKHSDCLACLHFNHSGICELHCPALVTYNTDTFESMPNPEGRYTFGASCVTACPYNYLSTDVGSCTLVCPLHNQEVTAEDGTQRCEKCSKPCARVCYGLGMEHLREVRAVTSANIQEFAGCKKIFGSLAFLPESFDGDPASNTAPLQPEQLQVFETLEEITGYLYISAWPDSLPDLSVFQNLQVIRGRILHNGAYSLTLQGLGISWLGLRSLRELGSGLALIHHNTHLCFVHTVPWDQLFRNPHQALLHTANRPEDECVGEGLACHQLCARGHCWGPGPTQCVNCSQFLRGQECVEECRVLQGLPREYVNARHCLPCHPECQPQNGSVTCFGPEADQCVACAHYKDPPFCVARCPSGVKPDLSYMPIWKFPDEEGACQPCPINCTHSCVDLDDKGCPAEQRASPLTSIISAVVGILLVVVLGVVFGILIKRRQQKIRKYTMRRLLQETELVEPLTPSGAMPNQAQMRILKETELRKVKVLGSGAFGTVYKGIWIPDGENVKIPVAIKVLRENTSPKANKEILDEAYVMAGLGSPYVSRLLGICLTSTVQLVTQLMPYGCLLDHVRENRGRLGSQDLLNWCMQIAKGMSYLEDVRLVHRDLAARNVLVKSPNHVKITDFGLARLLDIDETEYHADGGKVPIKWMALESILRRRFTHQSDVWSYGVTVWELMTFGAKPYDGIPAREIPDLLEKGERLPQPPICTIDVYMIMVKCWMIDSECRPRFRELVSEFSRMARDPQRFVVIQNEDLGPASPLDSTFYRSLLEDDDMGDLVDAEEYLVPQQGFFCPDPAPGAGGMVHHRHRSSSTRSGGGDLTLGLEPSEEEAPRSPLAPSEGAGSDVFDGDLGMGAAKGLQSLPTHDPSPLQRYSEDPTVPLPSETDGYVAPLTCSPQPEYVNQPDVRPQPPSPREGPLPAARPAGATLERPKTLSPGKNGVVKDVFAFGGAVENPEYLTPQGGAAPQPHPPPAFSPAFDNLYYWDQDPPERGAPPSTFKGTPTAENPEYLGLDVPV

IC50 [1] [nM] | IC50 [2] [nM] | Compound
100 to 500 | 100 to 500 | C=CC(=O)N1C2CC1CN(c1ncc3ncnc(Nc4cc(C)c(Oc5ccc6c(c5)nnn6C)cc4OC)c3n1)C2 [Compound 13, 1-(3-(8-((2-methoxy-5-methyl-4-((1-methyl-1H-benzo[d][1,2,3]triazol-5-yl)oxy)phenyl)amino)pyrimido[5,4-d]pyrimidin-2-y1)-3,6-diazabicyclo[3.1.1]heptan-6-yl)prop-2-en-1-one]
500 to 1000 | ≥ 1000 | C=CC(=O)N(C)C1CC2(C1)CN(c1ncc3ncnc(Nc4ccc(Oc5ccc6c(c5)nnn6C)c(C)c4)c3n1)C2 [Compound 232, N-methyl-N-(2-(8-((3-methyl-4-((1-methyl-H-benzo[d][1,2,3]triazol-5-yl)oxy)phenyl)amino)pyrimido[5,4-d]pyrimidin-2-yl)-2-azaspiro[3.3]heptan-6-yl)acrylamide]
50 to 100 | 100 to 500 | C=CC(=O)N1CCN(c2ncc3ncnc(Nc4ccc(Oc5cc6ncn(C)c6nc5C)c(C)c4)c3n2)CC1 [Compound 135, 1-(4-(8-((4-((3,5-dimethyl-3H-imidazo[4,5-b]pyridin-6-yl)oxy)-3-methylphenyl)amino)pyrimido[5,4-d]pyrimidin-2-yl)piperazin-1-yl)prop-2-en-1-one]
100 to 500 | 500 to 1000 | C=CC(=O)NC1CC2(C1)CN(c1ncc3ncnc(Nc4ccc(Oc5ccc6c(c5)nnn6C)c(C)c4)c3n1)C2 [Compound 225, N-(2-(8-((3-methyl-4-((1-methyl-1H-benzo[d][1,2,3]triazol-5-yl)oxy)phenyl)amino)pyrimido[5,4-d]pyrimidin-2-yl)-2-azaspiro[3.3]heptan-6-yl)acrylamide]
100 to 500 | 100 to 500 | C=CC(=O)N1CCN(c2ncc3ncnc(Nc4ccc(Oc5cc6nnn(C)c6c(F)c5C)c(C)c4)c3n2)CC1 [Compound 137, 1-(4-(8-((4-((7-fluoro-1,6-dimethyl-1H-benzo[d][1,2,3]triazol-5-yl)oxy)-3-methylphenyl)amino)pyrimido[5,4-d]pyrimidin-2-yl)piperazin-1-yl)prop-2-en-1-one]
100 to 500 | 500 to 1000 | C=CC(=O)N1CCN(c2ccc3ncnc(Nc4ccc(Oc5ccc6c(c5)ncn6C(F)F)c(C)c4F)c3n2)CC1(C)C [Compound 321, 1-(4-(4-((4-((1-(difluoromethyl)-1H-benzo[d]imidazol-5-yl)oxy)-2-fluoro-3-methylphenyl)amino)pyrido[3,2-d]pyrimidin-6-y1)-2,2-dimethylpiperazin-1-yl)prop-2-en-1-one]
100 to 500 | 100 to 500 | C=CC(=O)N1CC2CC(C1)N2c1ccc2ncnc(Nc3ccc(Oc4ccc5c(c4)nnn5C)c(C)c3)c2n1 [Compound 96, 1-(6-(4-((3-methyl-4-((1-methyl-1H-benzo[d][1,2,3]triazol-5-yl)oxy)phenyl)amino)pyrido[3,2-d]pyrimidin-6-yl)-3,6-diazabicyclo[3.1.1]heptan-3-yl)prop-2-en-1-one]
50 to 100 | 100 to 500 | C=CC(=O)N1CCN(c2ncc3ncnc(Nc4ccc(Oc5ccc6c(c5)nnn6C)c(C)c4)c3n2)C[C@H]1C [Compound 1, (R)-1-(2-methyl-4-(8-((3-methyl-4-((1-methyl-1H-benzo[d][1,2,3]triazol-5-yl)oxy)phenyl)amino)pyrimido[5,4-d]pyrimidin-2-yl)piperazin-1-yl)prop-2-en-1-one]
50 to 100 | 100 to 500 | C=CC(=O)N1CCN(c2ncc3ncnc(Nc4cc(Cl)c(Oc5ccc6c(c5)nnn6C)cc4F)c3n2)CC1 [Compound 66, 1-(4-(8-((5-chloro-2-fluoro-4-((1-methyl-1H-benzo[d][1,2,3]triazol-5-yl)oxy)phenyl)amino)pyrimido[5,4-d]pyrimidin-2-yl)piperazin-1-yl)prop-2-en-1-one]
500 to 1000 | ≥ 1000 | C=CC(=O)N1C[C@@H](C)N(c2ncc3ncnc(Nc4ccc(Oc5ccc6c(c5)nnn6C)c(C)c4)c3n2)C[C@@H]1C [Compound 188, 1-((2S,5R)-2,5-dimethyl-4-(8-((3-methyl-4-((1-methyl-1H-benzo[d][1,2,3]triazol-5-yl)oxy)phenyl)amino)pyrimido[5,4-d]pyrimidin-2-yl)piperazin-1-yl)prop-2-en-1-one]
50 to 100 | 100 to 500 | C=CC(=O)N[C@H]1CCCCN(c2ncc3ncnc(Nc4ccc(Oc5ccc6c(c5)nnn6C)c(C)c4F)c3n2)C1 [Compound 173, (S)-N-(1-(8-((2-fluoro-3-methyl-4-((1-methyl-1H-benzo[d][1,2,3]triazol-5-yl)oxy)phenyl)amino)pyrimido[5,4-d]pyrimidin-2-yl)azepan-3-yl)acrylamide]
100 to 500 | 100 to 500 | C=CC(=O)N1CCN(c2ncc3ncnc(Nc4ccc(Oc5ccc6c(c5)nnn6C)c(C)c4F)c3n2)CC1(C)C [Compound 32, 1-(4-(8-((2-fluoro-3-methyl-4-((1-methyl-1H-benzo[d][1,2,3]triazol-5-yl)oxy)phenyl)amino)pyrimido [5,4-d]pyrimidin-2-yl)-2,2-dimethylpiperazin-1-yl)prop-2-en-1-one]
100 to 500 | 100 to 500 | C=CC(=O)N1CCN(c2ccc3ncnc(Nc4c(OC)cc(Oc5ccc6c(c5)nnn6C)c(C)c4F)c3n2)C[C@H]1C [Compound 256, (R)-1-(4-(4-((2-fluoro-6-methoxy-3-methyl-4-((1-methyl-1H-benzo[d][1,2,3]triazol-5-yl)oxy)phenyl)amino)pyrido[3,2-d]pyrimidin-6-yl)-2-methylpiperazin-1-yl)prop-2-en-1-one]
100 to 500 | 100 to 500 | C=CC(=O)N1CCN(c2ncc3ncnc(Nc4ccc(Oc5cnc6c(c5)ncn6C)c(C)c4F)c3n2)C[C@H]1C [Compound 158, (R)-1-(4-(8-((2-fluoro-3-methyl-4-((3-methyl-3H-imidazo[4,5-b]pyridin-6-yl)oxy)phenyl)amino)pyrimido[5,4-d]pyrimidin-2-y1)-2-methylpiperazin-1-yl)prop-2-en-1-one]
100 to 500 | 100 to 500 | C=CC(=O)N1CCN(c2ccc3ncnc(Nc4ccc(Oc5ccc6c(c5)nnn6C)c(C)c4F)c3n2)C[C@@H]1C [Compound 325, (S)-1-(4-(4-((2-fluoro-3-methyl-4-((1-methyl-1H-benzo[d][1,2,3]triazol-5-yl)oxy)phenyl)amino)pyrido[3,2-d]pyrimidin-6-yl)-2-methylpiperazin-1-yl)prop-2-en-1-one]
50 to 100 | 100 to 500 | C=CC(=O)N[C@@H]1CCCN(c2ncc3ncnc(Nc4ccc(Oc5ccc6c(c5)nnn6C)c(C)c4F)c3n2)C1 [Compound 157, (R)-N-(1-(8-((2-fluoro-3-methyl-4-((1-methyl-1H-benzo[d][1,2,3]triazol-5-yl)oxy)phenyl)amino)pyrimido[5,4-d]pyrimidin-2-yl)piperidin-3-yl)acrylamide]
500 to 1000 | ≥ 1000 | C=C(F)C(=O)N1CCN(c2ccc3ncnc(Nc4ccc(Oc5ccc6c(c5)nnn6C)c(C)c4)c3n2)C[C@H]1COC [Compound 362, (S)-2-fluoro-1-(2-(methoxymethyl)-4-(4-((3-methyl-4-((1-methyl-1H-benzo[d][1,2,3]triazol-5-yl)oxy)phenyl)amino)pyrido[3,2-d]pyrimidin-6-yl)piperazin-1-yl)prop-2-en-1-one]
100 to 500 | 50 to 100 | C=CC(=O)N[C@H]1CCCN(c2ccc3ncnc(Nc4ccc(Oc5ccc6c(c5)nnn6C)c(C)c4F)c3n2)[C@@H]1C (single isomer, unassigned) [Compound 348]
500 to 1000 | ≥ 1000 | C=CC(=O)N1CCC2(CCN(c3ccc4ncnc(Nc5ccc(Oc6ccc7c(c6)nnn7C)c(C)c5)c4n3)C2)C1 (stereo not drawn) [Compound 311, 1-(7-(4-((3-methyl-4-((1-methyl-1H-benzo[d][1,2,3]triazol-5-yl)oxy)phenyl)amino)pyrido[3,2-d]pyrimidin-6-yl)-2,7-diazaspiro[4.4]nonan-2-yl)prop-2-en-1-one]
100 to 500 | 500 to 1000 | C=CC(=O)N(C)[C@H]1CCCN(c2ncc3ncnc(Nc4ccc(Oc5ccc6c(c5)nnn6C)c(C)c4)c3n2)C1 [Compound 127, (S)-N-methyl-N-(1-(8-((3-methyl-4-((1-methyl-1H-benzo[d][1,2,3]triazol-5-yl)oxy)phenyl)amino)pyrimido[5,4-d]pyrimidin-2-y1)piperidin-3-yl)acrylamide]
100 to 500 | 500 to 1000 | C=CC(=O)N1CCN(c2ncc3ncnc(Nc4ccc(Oc5ccc6c(c5)nnn6C)c(C)c4F)c3n2)CC[C@@H]1C [Compound 169, (S)-1-(4-(8-((2-fluoro-3-methyl-4-((1-methyl-1H-benzo[d][1,2,3]triazol-5-yl)oxy)phenyl)amino)pyrimido[5,4-d]pyrimidin-2-y1)-7-methyl-1,4-diazepan-1-yl)prop-2-en-1-one]
500 to 1000 | 500 to 1000 | C=CC(=O)N1CCCN(c2ccc3ncnc(Nc4cc(C)c(Oc5ccc6c(c5)nnn6C)cc4OC)c3n2)CC1 [Compound 264, 1-(4-(4-((2-methoxy-5-methyl-4-((1-methyl-1H-benzo[d][1,2,3]triazol-5-yl)oxy)phenyl)amino)pyrido[3,2-d]pyrimidin-6-yl)-1,4-diazepan-1-yl)prop-2-en-1-one]
100 to 500 | 500 to 1000 | C=CC(=O)N1CCN(c2ncc3ncnc(Nc4ccc(Oc5ccc6c(c5)nnn6C)c(C)c4)c3n2)CC[C@@H]1C [Compound 228, (S)-1-(7-methyl-4-(8-((3-methyl-4-((1-methyl-1H-benzo[d][1,2,3]triazol-5-yl)oxy)phenyl)amino)pyrimido[5,4-d]pyrimidin-2-yl)-1,4-diazepan-1-yl)prop-2-en-1-one]
50 to 100 | 50 to 100 | Cc1cc(Nc2ncnc3cnc(N4CCN(C(=O)/C=C/CN(C)C)CC4)nc23)ccc1Oc1ccc2c(c1)nnn2C [Compound 58, (E)-4-(dimethyl-amino)-1-(4-(8-((3-methyl-4-((1-methyl-1H-benzo[d][1,2,3]triazol-5-yl)oxy)phenyl)amino)pyrimido [5,4-d]pyrimidin-2-yl)piperazin-1-yl)but-2-en-1-one]
